From US11596611B2, “Hepatitis B antiviral agents” (ENANTA PHARMACEUTICALS, INC., priority 2017, dated 2023)

Assays:
HBV = assay: HepAD38 antiviral assay: reduction of viral product accumulation (virion DNA by qPCR, HBsAg or HBeAg by ELISA); type: cell-based, hepatitis B virus; conditions: Hepatitis B virus, 120 h; HepAD38 cells, five days after compound addition; 50% reduction of viral product vs no drug controls; read-out: HepAD38 EC50
How it was run: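 Tetracycline-free HepAD38 cells exposed to compound (DMSO stock diluted 1:200) for 5 days, or 8 days with media and compound refreshed on d2 and d5. Virion DNA quantified by qPCR after lysis; HBsAg or HBeAg measured by ELISA on diluted samples.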

[1] = Compound toxicity by ATPLite (total ATP levels); type: cell-based; conditions: human, three days after compound addition, 50% reduction of total ATP
Protocol: Methods: HepAD38 cells are maintained as previously reported (Ladner et al, Antimicrob. Agents Chemother. 1997, […], 1715). Briefly, cells are passaged upon attaining confluency in DMEM/F12 media in the presence of 10% FBS, Penn/Strep, 250 μg/mL G418, and 1 ug/ml tetracycline. Novel compounds are screened by first washing cells three times with PBS to remove tetracycline, and plating in 96 well plates at 35,000 cells/well. Compounds dissolved in DMSO are then diluted 1:200 into wells containing cells. Five days after compound addition, material is harvested for analysis. For an extended 8 days analysis, cells are plated and treated as described above, but media and compound are refreshed on d2 and d5 post initial treatment.
Compound toxicity is evaluated by seeding cells at 15,000 cells/well and treating with compound as described above.

Compound	EC50 (HBV)	CC50 at 3 days ([1]; class symbols)	CC50 at 3 days ([1]; numeric bounds)
C[C@@H](O)[C@H](O)COC[C@]1(O)C2CCC1C[C@@H](S(=O)(=O)c1cc(C(=O)Nc3ccc(F)c(F)c3)ccc1Cl)C2 [Example 178]	< 104 nM	> 25000 nM	–
O=C(Nc1ccc(F)c(F)c1)c1ccc(F)c(S(=O)(=O)[C@@H]2CC3CC[C@@H](C2)[C@@]3(O)CO)c1 [Example 325]	< 104 nM	> 25000 nM	–
CC(=O)[C@@H](O)[C@@]1(O)C2CC[C@H]1C[C@H](S(=O)(=O)c1cc(C(=O)Nc3ccc(F)c(F)c3)ccc1Cl)C2 [Example 331]	< 104 nM	> 25000 nM	–
CC(C)(O)CNC(=O)C[C@]1(O)C2CCC1C[C@@H](S(=O)(=O)c1cc(C(=O)Nc3cc(F)c(F)c(F)c3)ccc1Cl)C2 [Example 71]	< 104 nM	–	> 3000 nM
C[C@@H](O)CNC(=O)C[C@]1(O)C2CCC1C[C@@H](S(=O)(=O)c1cc(C(=O)Nc3cc(F)c(F)c(F)c3)ccc1Cl)C2 [Example 113]	< 104 nM	–	> 6250 nM
Cc1cccc(C(O)[C@@]2(O)C3CC[C@H]2C[C@H](S(=O)(=O)c2cc(C(=O)Nc4ccc(F)c(F)c4)ccc2Cl)C3)n1 (stereo partly drawn) [Example 294]	< 104 nM	> 25000 nM	–
CC(CO)NC(=O)C[C@]1(O)C2CCC1C[C@@H](S(=O)(=O)c1cc(C(=O)Nc3cc(F)c(F)c(F)c3)ccc1Cl)C2 (stereo partly drawn) [Example 55]	< 104 nM	> 25000 nM	–
CC(C)(O)C[C@@]1(O)C2CC[C@H]1C[C@H](S(=O)(=O)c1cc(C(=O)Nc3ccc(F)c(F)c3)ccc1Cl)C2 [Example 193]	< 104 nM	> 25000 nM	–
O=C(C[C@]1(O)C2CCC1C[C@@H](S(=O)(=O)c1cc(C(=O)Nc3ccc(F)c(F)c3)ccc1Cl)C2)NC1CC(O)C1 (stereo partly drawn) [Example 192]	< 104 nM	–	> 12500 nM
O=C(Nc1cc(F)c(F)c(F)c1)c1ccc(Cl)c(S(=O)(=O)[C@H]2CC3CCC(C2)[C@]3(O)CC(=O)N2CC(O)C2)c1 [Example 92]	< 104 nM	–	> 6250 nM
CC=CCNC(=O)C[C@]1(O)C2CCC1C[C@@H](S(=O)(=O)c1cc(C(=O)Nc3cc(F)c(F)c(F)c3)ccc1Cl)C2 [Example 53]	< 104 nM	–	> 6250 nM
O=C(C[C@]1(O)C2CCC1C[C@@H](S(=O)(=O)c1cc(C(=O)Nc3cc(F)c(F)c(F)c3)ccc1Cl)C2)N[C@H]1C[C@H](O)C1 [Example 111]	< 104 nM	–	> 3000 nM
O=C(Nc1cc(F)c(F)c(F)c1)c1ccc(Cl)c(S(=O)(=O)[C@H]2CC3CCC(C2)[C@]3(O)COCCO)c1 [Example 62]	< 104 nM	–	> 12500 nM
O=C(Nc1ccc(F)c(F)c1)c1ccc(Cl)c(S(=O)(=O)[C@@H]2CC3CC[C@@H](C2)[C@@]3(O)C(O)c2cnoc2)c1 (stereo partly drawn) [Example 303]	< 104 nM	> 25000 nM	–
O=C(Nc1cc(F)c(F)c(F)c1)c1ccc(Cl)c(S(=O)(=O)[C@H]2CC3CCC(C2)[C@]3(O)COC(CCO)CCO)c1 [Example 61]	< 104 nM	–	> 6250 nM
C[C@H](O)[C@@H](O)[C@]1(O)C2CCC1C[C@@H](S(=O)(=O)c1cc(C(=O)Nc3cc(F)c(F)c(F)c3)ccc1Cl)C2 (racemic) [Example 5]	< 104 nM	–	> 3000 nM
COCC1(NC(=O)C[C@]2(O)C3CCC2C[C@@H](S(=O)(=O)c2cc(C(=O)Nc4cc(F)c(F)c(F)c4)ccc2Cl)C3)CC1 [Example 116]	< 104 nM	–	> 3000 nM
COC(C)(C)CNC(=O)C[C@]1(O)C2CCC1C[C@@H](S(=O)(=O)c1cc(C(=O)Nc3ccc(F)c(F)c3)ccc1Cl)C2 [Example 191]	< 104 nM	> 25000 nM	–
CC(=O)OC[C@H](O)[C@@H](O)[C@@]1(O)C2CC[C@H]1C[C@H](S(=O)(=O)c1cc(C(=O)Nc3cc(F)c(F)c(F)c3)ccc1Cl)C2 (relative stereo) [Example 68]	< 104 nM	> 25000 nM	–
C[C@@H](O)[C@H](O)COC[C@]1(O)C2CCC1C[C@@H](S(=O)(=O)c1cc(C(=O)Nc3cc(F)c(F)c(F)c3)ccc1Cl)C2 (single isomer, unassigned) [Example 163]	< 104 nM	> 25000 nM	–
CC(C)(C)OC(=O)N[C@@H](Cc1ccccc1)C(=O)N1C2CCC1CC(S(=O)(=O)c1cc(C(=O)Nc3cc(F)c(F)c(F)c3)ccc1Cl)C2 (stereo partly drawn) [Example 152]	> 200 nM	> 25000 nM	–

Compound	EC50 (HBV)	CC50 at 3 days ([1]; class symbols)	CC50 at 3 days ([1]; numeric bounds)
O=C(Nc1cc(F)c(F)c(F)c1)c1ccc(Cl)c(S(=O)(=O)[C@H]2CC3CCC(C2)[C@]3(O)CNC(=O)C2CCCCO2)c1 (stereo partly drawn) [Example 91]	< 104 nM	10000 to 25000 nM	–
C/C=C/C(=O)NC[C@]1(O)C2CCC1C[C@@H](S(=O)(=O)c1cc(C(=O)Nc3cc(F)c(F)c(F)c3)ccc1Cl)C2 [Example 12]	< 104 nM	–	> 3000 nM
C[C@@H](O)CNC(=O)C[C@]1(O)C2CCC1C[C@@H](S(=O)(=O)c1cc(C(=O)Nc3ccc(F)c(F)c3)ccc1Cl)C2 [Example 186]	< 104 nM	–	> 12500 nM
CO[C@@H](C)CNC(=O)C[C@]1(O)C2CCC1C[C@@H](S(=O)(=O)c1cc(C(=O)Nc3ccc(F)c(F)c3)ccc1Cl)C2 [Example 188]	< 104 nM	–	> 12500 nM
O=C(Nc1ccc(F)c(F)c1)c1ccc(Cl)c(S(=O)(=O)[C@H]2CC3CCC(C2)[C@]3(O)C(O)Cc2ccccn2)c1 (stereo partly drawn) [Example 319]	< 104 nM	> 25000 nM	–
CC(=O)N(C[C@@H](C)O)C[C@]1(O)C2CCC1C[C@@H](S(=O)(=O)c1cc(C(=O)Nc3cc(F)c(F)c(F)c3)ccc1Cl)C2 [Example 126]	< 104 nM	–	> 6250 nM
O=C(Nc1cc(F)c(F)c(F)c1)c1ccc(Cl)c(S(=O)(=O)[C@H]2CC3CCC(C2)[C@]3(O)CNC(=O)c2ncco2)c1 [Example 88]	< 104 nM	–	> 6250 nM
C[C@H](O)C(=O)[C@]1(O)C2CCC1C[C@@H](S(=O)(=O)c1cc(C(=O)Nc3ccc(F)c(F)c3)ccc1Cl)C2 [Example 345]	< 104 nM	> 25000 nM	–
O=C(C[C@]1(O)C2CCC1C[C@@H](S(=O)(=O)c1cc(C(=O)Nc3cc(F)c(F)c(F)c3)ccc1Cl)C2)NC1(CO)CC1 [Example 117]	< 104 nM	–	> 6250 nM
O=C(Nc1ccc(F)c(F)c1)c1ccc(Cl)c(S(=O)(=O)[C@H]2CC3CCC(C2)[C@]3(O)CNC(=O)c2ncco2)c1 [Example 167]	< 104 nM	–	> 12500 nM
Cc1ccnc(C(O)[C@@]2(O)C3CC[C@H]2C[C@H](S(=O)(=O)c2cc(C(=O)Nc4ccc(F)c(F)c4)ccc2Cl)C3)c1 (stereo partly drawn) [Example 296]	< 104 nM	> 25000 nM	–
C[C@H](O)[C@@H](O)COC[C@]1(O)C2CCC1C[C@@H](S(=O)(=O)c1cc(C(=O)Nc3ccc(F)c(F)c3)ccc1Cl)C2 [Example 179]	< 104 nM	> 25000 nM	–
CC(C)OC(=O)N[C@@H](C)C(=O)NC[C@]1(O)C2CCC1C[C@@H](S(=O)(=O)c1cc(C(=O)Nc3cc(F)c(F)c(F)c3)ccc1Cl)C2 [Example 70]	< 104 nM	> 25000 nM	–
C[C@H](O)[C@@H](O)[C@]1(O)C2CCC1C[C@@H](S(=O)(=O)c1cc(C(=O)Nc3ccc(F)c(F)c3)ccc1Cl)C2 (single isomer, unassigned) [Example 182]	< 104 nM	> 25000 nM	–
C[C@@H](O)[C@@H](O)[C@]1(O)C2CCC1C[C@@H](S(=O)(=O)c1cc(C(=O)Nc3ccc(F)c(F)c3)ccc1Cl)C2 (single isomer, unassigned) [Example 180]	< 104 nM	> 25000 nM	–
CC(C)(O)CNC(=O)C[C@]1(O)C2CCC1C[C@@H](S(=O)(=O)c1cc(C(=O)Nc3ccc(F)c(F)c3)ccc1Cl)C2 [Example 187]	< 104 nM	–	> 12500 nM
CC(O)C[C@@]1(O)C2CC[C@H]1C[C@H](S(=O)(=O)c1cc(C(=O)Nc3ccc(F)c(F)c3)ccc1Cl)C2 (stereo partly drawn) [Example 218]	< 104 nM	10000 to 25000 nM	–
C[C@H](O)CNC(=O)C[C@]1(O)C2CCC1C[C@@H](S(=O)(=O)c1cc(C(=O)Nc3ccc(F)c(C(F)F)c3)ccc1Cl)C2 [Example 129]	< 104 nM	> 25000 nM	–
C[C@H](O)CNC(=O)C[C@]1(O)C2CCC1C[C@@H](S(=O)(=O)c1cc(C(=O)Nc3cc(F)c(F)c(F)c3)ccc1Cl)C2 [Example 112]	< 104 nM	–	> 6250 nM
CC(=O)N(C[C@H](C)O)C[C@]1(O)C2CCC1C[C@@H](S(=O)(=O)c1cc(C(=O)Nc3cc(F)c(F)c(F)c3)ccc1Cl)C2 [Example 125]	< 104 nM	–	> 6250 nM
[2H]C1([2H])C2CCC(C([2H])([2H])[C@]1([2H])S(=O)(=O)c1cc(C(=O)Nc3ccc(F)c(F)c3)ccc1Cl)[C@@]2(O)CO [Example 279]	< 104 nM	> 25000 nM	–
